These compounds were tested against T1, rat NaPi-2b (Rattus norvegicus, UniProt Q9JJ09) (assay: Sodium-dependent phosphate uptake of Xenopus oocytes which expressed NaPi-2b (32P)). Conditions: Xenopus oocytes expressing rat NaPi-2b, 32P radioactive phosphorus; read-out: IC50 (phosphate uptake inhibitory activity).
T1 construct: expressed in transfected cells; host or cells: Xenopus oocytes injected with cRNA
T1 sequence (Q9JJ09 1-695): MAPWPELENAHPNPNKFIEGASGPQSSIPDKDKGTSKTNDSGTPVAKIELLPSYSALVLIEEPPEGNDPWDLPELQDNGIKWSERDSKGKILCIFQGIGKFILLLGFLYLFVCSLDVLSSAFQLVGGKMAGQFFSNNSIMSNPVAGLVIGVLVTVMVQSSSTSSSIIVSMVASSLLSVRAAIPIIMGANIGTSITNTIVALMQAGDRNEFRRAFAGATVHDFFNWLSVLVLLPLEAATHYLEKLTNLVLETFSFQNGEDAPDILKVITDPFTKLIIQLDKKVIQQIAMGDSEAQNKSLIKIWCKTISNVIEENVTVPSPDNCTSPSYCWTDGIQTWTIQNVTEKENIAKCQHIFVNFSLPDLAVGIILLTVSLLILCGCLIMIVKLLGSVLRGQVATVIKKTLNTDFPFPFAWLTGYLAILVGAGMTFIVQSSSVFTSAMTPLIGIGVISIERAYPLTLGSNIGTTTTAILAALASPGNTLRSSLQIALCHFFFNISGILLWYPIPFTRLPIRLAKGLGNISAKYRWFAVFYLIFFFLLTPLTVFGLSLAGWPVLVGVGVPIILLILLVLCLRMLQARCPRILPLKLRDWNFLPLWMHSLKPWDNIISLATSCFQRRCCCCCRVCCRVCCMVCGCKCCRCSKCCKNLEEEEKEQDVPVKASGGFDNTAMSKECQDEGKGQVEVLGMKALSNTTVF
Type: cell-based
In short: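 Inhibition at 300 μM and 100 μM was read off one inhibition curve of 32P phosphate uptake. Uptake was measured in Xenopus oocytes cultured 2 days after injection of cRNA for cloned rat NaPi-2b.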
`COc1ccc(NC(=O)c2ccc(OC)c(OC)c2)c(C(=O)N/N=C/c2ccc(F)cc2)c1` [Compound 142, N-[2-(4-Fluoro-benzylidene-hydrazinocarbonyl)-4-methoxy-phenyl]-3,4-dimethoxy-benzamide] was tested, and the IC50 was 9.2 µM.
In the case of `COc1ccc(NC(=O)c2ccc(OC)c(OC)c2)c(C(=O)N/N=C/c2cccc(C)c2)c1` [Compound 143, 3,4-Dimethoxy-N-[4-methoxy-2-(3-methyl-benzylidene-hydrazinocarbonyl)-phenyl]-benzamide], the IC50 is reported as 5.88 µM.
`COc1ccc(NC(=O)c2ccc(OC)c(OC)c2)c(C(=O)N/N=C/c2ccc(C)cc2)c1` [Compound 144, 3,4-Dimethoxy-N-[4-methoxy-2-(4-methyl-benzylidene-hydrazinocarbonyl)-phenyl]-benzamide] was tested, and the IC50 was 5.02 µM.
Work on `COc1ccc(NC(=O)c2ccc(OC)c(OC)c2)c(C(=O)N/N=C/c2ccc(C)c(C)c2)c1` [Compound 145, N-[2-(3,4-Dimethyl-benzylidene-hydrazinocarbonyl)-4-methoxy-phenyl]-3,4-dimethoxy-benzamide] yielded an IC50 of 3.82 µM.
`COc1ccc(C(=O)Nc2ccc(C)cc2C(=O)N/N=C/c2cccc(F)c2)cc1OC` [Compound 146, N-[2-(3-Fluoro-benzylidene-hydrazinocarbonyl)-4-methyl-phenyl]-3,4-dimethoxy-benzamide] was tested, and the IC50 was 1.99 µM.
Work on `COc1ccc(C(=O)Nc2ccc(C)cc2C(=O)N/N=C/c2ccc(F)cc2)cc1OC` [Compound 147, N-[2-(4-Fluoro-benzylidene-hydrazinocarbonyl)-4-methyl-phenyl]-3,4-dimethoxy-benzamide] yielded an IC50 of 7.68 µM.
With `COc1ccc(C(=O)Nc2ccc(C)cc2C(=O)N/N=C/c2cccc(C)c2)cc1OC` [Compound 148, 3,4-Dimethoxy-N-[4-methyl-2-(3-methyl-benzylidene-hydrazinocarbonyl)-phenyl]-benzamide] the IC50 was 15.6 µM.
`COc1ccc(C(=O)Nc2ccc(C)cc2C(=O)N/N=C/c2ccc(C)cc2)cc1OC` [Compound 149, 3,4-Dimethoxy-N-[4-methyl-2-(4-methyl-benzylidene-hydrazinocarbonyl)-phenyl]-benzamide] gave an IC50 of 5.51 µM.
In the case of `COc1ccc(C(=O)Nc2ccc(C)cc2C(=O)N/N=C/c2ccc(C)c(C)c2)cc1OC` [Compound 150, N-[2-(3,4-Dimethyl-benzylidene-hydrazinocarbonyl)-4-methyl-phenyl]-3,4-dimethoxy-benzamide], the IC50 is reported as 1.09 µM.
Work on `O=C(Nc1ccc(Br)cc1C(=O)N/N=C/c1cccc(F)c1)c1ccco1` [Compound 151, Furan-2-carboxylic acid [4-bromo-2-(3-fluoro-benzylidene-hydrazinocarbonyl)-phenyl]-amide] yielded an IC50 of 3.07 µM.
Work on `O=C(Nc1ccc(Br)cc1C(=O)N/N=C/c1ccc(F)cc1)c1ccco1` [Compound 152, Furan-2-carboxylic acid [4-bromo-2-(4-fluoro-benzylidene-hydrazinocarbonyl)-phenyl]-amide] yielded an IC50 of 1.48 µM.
`Cc1cccc(/C=N/NC(=O)c2cc(Br)ccc2NC(=O)c2ccco2)c1` [Compound 153, Furan-2-carboxylic acid [4-bromo-2-(3-methyl-benzylidene-hydrazinocarbonyl)-phenyl]-amide] showed an IC50 of 3.5 µM.
For `Cc1ccc(/C=N/NC(=O)c2cc(Br)ccc2NC(=O)c2ccco2)cc1` [Compound 154, Furan-2-carboxylic acid [4-bromo-2-(4-methyl-benzylidene-hydrazinocarbonyl)-phenyl]-amide], the IC50 was 2.37 µM.
`Cc1ccc(/C=N/NC(=O)c2cc(Br)ccc2NC(=O)c2ccco2)cc1C` [Compound 155, Furan-2-carboxylic acid [4-bromo-2-(3,4-dimethyl-benzylidene-hydrazinocarbonyl)-phenyl]-amide] gave an IC50 of 0.32 µM.
`O=C(Nc1ccc(Br)cc1C(=O)N/N=C/c1ccc(Cl)c(C(F)(F)F)c1)c1ccco1` [Compound 156, Furan-2-carboxylic acid [4-bromo-2-(4-chloro-3-trifluoromethyl-benzylidene-hydrazinocarbonyl)-phenyl]-amide] gave an IC50 of 0.46 µM.
`O=C(Nc1ccc(Br)cc1C(=O)N/N=C/c1ccc(F)cc1)c1cccs1` [Compound 158, Thiophene-2-carboxylic acid [4-bromo-2-(4-fluoro-benzylidene-hydrazinocarbonyl)-phenyl]-amide] gave an IC50 of 3.28 µM.
For `Cc1cccc(/C=N/NC(=O)c2cc(Br)ccc2NC(=O)c2cccs2)c1` [Compound 159, Thiophene-2-carboxylic acid [4-bromo-2-(3-methyl-benzylidene-hydrazinocarbonyl)-phenyl]-amide], the IC50 was 4.35 µM.
Compound `Cc1ccc(/C=N/NC(=O)c2cc(Br)ccc2NC(=O)c2cccs2)cc1` [Compound 160, Thiophene-2-carboxylic acid [4-bromo-2-(4-methyl-benzylidene-hydrazinocarbonyl)-phenyl]-amide] has an IC50 of 0.93 µM.
For `Cc1ccc(/C=N/NC(=O)c2cc(Br)ccc2NC(=O)c2cccs2)cc1C` [Compound 161, Thiophene-2-carboxylic acid [4-bromo-2-(3,4-dimethyl-benzylidene-hydrazinocarbonyl)-phenyl]-amide], the IC50 was 0.96 µM.
In the case of `O=C(Nc1ccc(Br)cc1C(=O)N/N=C/c1ccc(Cl)c(C(F)(F)F)c1)c1cccs1` [Compound 162, Thiophene-2-carboxylic acid [4-bromo-2-(4-chloro-3-trifluoromethyl-benzylidene-hydrazinocarbonyl)-phenyl]-amide], the IC50 is reported as 3.11 µM.
`O=C(Nc1ccc(Br)cc1C(=O)N/N=C/c1cccc(F)c1)c1ccncc1` [Compound 166, N-[4-Bromo-2-(3-fluoro-benzylidene-hydrazinocarbonyl)-phenyl]-isonicotinamide] gave an IC50 of 27.9 µM.
Work on `O=C(Nc1ccc(Br)cc1C(=O)N/N=C/c1ccc(F)cc1)c1ccncc1` [Compound 167, N-[4-Bromo-2-(4-fluoro-benzylidene-hydrazinocarbonyl)-phenyl]-isonicotinamide] yielded an IC50 of 30.2 µM.
`Cc1cccc(/C=N/NC(=O)c2cc(Br)ccc2NC(=O)c2ccncc2)c1` [Compound 168, N-[4-Bromo-2-(3-methyl-benzylidene-hydrazinocarbonyl)-phenyl]-isonicotinamide] was tested, and the IC50 was 4.84 µM.
In the case of `Cc1ccc(/C=N/NC(=O)c2cc(Br)ccc2NC(=O)c2ccncc2)cc1` [Compound 169, N-[4-Bromo-2-(4-methyl-benzylidene-hydrazinocarbonyl)-phenyl]-isonicotinamide], the IC50 is reported as 4.24 µM.
With `Cc1ccc(/C=N/NC(=O)c2cc(Br)ccc2NC(=O)c2ccncc2)cc1C` [Compound 170, N-[4-Bromo-2-(3,4-dimethyl-benzylidene-hydrazinocarbonyl)-phenyl]-isonicotinamide] the IC50 was 5.34 µM.
Compound `O=C(Nc1ccc(Br)cc1C(=O)N/N=C/c1ccc(Cl)c(C(F)(F)F)c1)c1ccncc1` [Compound 171, N-[4-Bromo-2-(4-chloro-3-trifluoromethyl-benzylidene-hydrazinocarbonyl)-phenyl]-isonicotinamide] has an IC50 of 5.12 µM.
For `O=C(Nc1ccc(Br)cc1C(=O)N/N=C/c1cccc(F)c1)c1cccnc1` [Compound 172, N-[4-Bromo-2-(3-fluoro-benzylidene-hydrazinocarbonyl)-phenyl]-nicotinamide], the IC50 was 2.74 µM.
`O=C(Nc1ccc(Br)cc1C(=O)N/N=C/c1ccc(F)cc1)c1cccnc1` [Compound 173, N-[4-Bromo-2-(4-fluoro-benzylidene-hydrazinocarbonyl)-phenyl]-nicotinamide] showed an IC50 of 7.4 µM.
Compound `Cc1cccc(/C=N/NC(=O)c2cc(Br)ccc2NC(=O)c2cccnc2)c1` [Compound 174, N-[4-Bromo-2-(3-methyl-benzylidene-hydrazinocarbonyl)-phenyl]-nicotinamide] has an IC50 of 12.5 µM.
For `Cc1ccc(/C=N/NC(=O)c2cc(Br)ccc2NC(=O)c2cccnc2)cc1` [Compound 175, N-[4-Bromo-2-(4-methyl-benzylidene-hydrazinocarbonyl)-phenyl]-nicotinamide], the IC50 was 3.57 µM.
In the case of `Cc1ccc(/C=N/NC(=O)c2cc(Br)ccc2NC(=O)c2cccnc2)cc1C` [Compound 176, N-[4-Bromo-2-(3,4-dimethyl-benzylidene-hydrazinocarbonyl)-phenyl]-nicotinamide], the IC50 is reported as 4.1 µM.
For `O=C(Nc1ccc(Br)cc1C(=O)N/N=C/c1ccc(Cl)c(C(F)(F)F)c1)c1cccnc1` [Compound 177, N-[4-Bromo-2-(4-chloro-3-trifluoromethyl-benzylidene-hydrazinocarbonyl)-phenyl]-nicotinamide], the IC50 was 26 µM.
`CCc1ccc(C(=O)Nc2ccc(Br)cc2C(=O)N/N=C/c2cccc(F)c2)cc1` [Compound 178, N-[4-Bromo-2-(3-fluoro-benzylidene-hydrazinocarbonyl)-phenyl]-4-ethyl-benzamide] was tested, and the IC50 was 7.54 µM.
In the case of `CCc1ccc(C(=O)Nc2ccc(Br)cc2C(=O)N/N=C/c2ccc(F)cc2)cc1` [Compound 179, N-[4-Bromo-2-(4-fluoro-benzylidene-hydrazinocarbonyl)-phenyl]-4-ethyl-benzamide], the IC50 is reported as 18.7 µM.
`CCc1ccc(C(=O)Nc2ccc(Br)cc2C(=O)N/N=C/c2cccc(C)c2)cc1` [Compound 180, N-[4-Bromo-2-(3-methyl-benzylidene-hydrazinocarbonyl)-phenyl]-4-ethyl-benzamide] showed an IC50 of less than 3 µM.

— patent publication US8134015B2, “Compound inhibiting in vivo phosphorous transport and medicine containing the same” (Kyowa Hakko Kirin Co., Ltd., priority 2003, dated 2012)
